# System: MRSA
# Assay: Antibacterial activity of flavonoids on MRSA (agar plate dilution method, MIC)
# Type: cell-based, Staphylococcus aureus
# Conditions: Staphylococcus aureus; MRSA 20 strains, flavonoid alone; read-out: MIC50
# Experimental: (§1) MRSA were employed as bacteria to be tested. The antibacterial activity was determined according to the agar plate dilution method defined by Japan Society of Chemotherapy (Chemotherapy 29(1), 76-79(1981)). The employed plate medium for the measurement of sensitivity was semisynthetic medium based on Mueller-Hinton Agar, and the bacteria solution for seeding was prepared by incubating the test bacterium in Mueller-Hinton Broth at 37° C. for 20 hours, followed by diluting in 0.85% saline to give 10^6 CFU/mL. The test samples were produced in two times-serial dilution method. To this plate medium for the measurement of sensitivity, was seeded a bacteria solution with a Micro Planter® (Sakuma Seisakusho). After incubating at 37° C. for 20 hours, a minimum inhibitory concentration (MIC) was determined. […] In addition, MIC50 indicates a concentration yielding the proliferation inhibitory effect in 50% of total number of MRSA strains, whilst MIC90 indicates a concentration yielding the proliferation inhibitory effect in 90% of total number of MRSA strains.
row,MIC50 [µg/mL],SMILES
1,500,O=c1c(O)c(-c2ccc(O)cc2O)oc2cc(O)cc(O)c12 [morin]
2,500,O=C1C[C@@H](c2ccc(O)cc2)Oc2cc(O)cc(O)c21 [naringenin]

# Same assay, conditions: Staphylococcus aureus; MRSA 20 strains, flavonoid alone; read-out: MIC90
row,MIC90 [µg/mL],SMILES
1,> 500,O=c1c(O)c(-c2ccc(O)cc2O)oc2cc(O)cc(O)c12 [morin]
2,> 500,O=C1C[C@@H](c2ccc(O)cc2)Oc2cc(O)cc(O)c21 [naringenin]

# System: MRSA
# Assay: Enhancement of the antibacterial activity of methicillin by various flavonoids on MRSA
# Type: cell-based, Staphylococcus aureus
# Conditions: 50 μg/mL of the named flavonoid added
# Experimental: as §1
# Antibacterial Activities of Methicillin on MRSA with 50 μg/mL of Various Flavonoids
row,SMILES,MIC of methicillin [µg/mL]
1,Oc1cc(O)c2c(c1)O[C@@H](c1cc(O)c(O)c(O)c1)[C@H](O)C2 [(−)-gallocatechin],2

# Same assay, conditions: Staphylococcus aureus, methicillin alone
row,MIC [µg/mL],SMILES
1,1020,COc1cccc(OC)c1C(=O)N[C@@H]1C(=O)N2[C@@H]1SC(C)(C)[C@@H]2C(=O)O [methicillin]

# Same assay, conditions: methicillin alone
row,MIC of methicillin [µg/mL],SMILES
1,1024,COc1cccc(OC)c1C(=O)N[C@@H]1C(=O)N2[C@@H]1SC(C)(C)[C@@H]2C(=O)O [methicillin]

# System: MRSA
# Assay: Enhancement of the antibacterial activity of various antibiotics by flavone on MRSA
# Type: cell-based, Staphylococcus aureus
# Conditions: Staphylococcus aureus, antibiotics alone
# Experimental: as §1
# Antibacterial Activities of Various β-Lactam Antibiotics on MRSA with 50 μg/mL of Flavone
row,MIC [µg/mL],SMILES
1,64,CC1(C)S[C@@H]2[C@H](NC(=O)Cc3ccccc3)C(=O)N2[C@H]1C(=O)O [benzylpenicillin]
2,> 256,CC1(C)S[C@@H]2[C@H](NC(=O)C(C(=O)O)c3ccccc3)C(=O)N2[C@H]1C(=O)O (stereo partly shown) [carbenicillin]
3,1020,COc1cccc(OC)c1C(=O)N[C@@H]1C(=O)N2[C@@H]1SC(C)(C)[C@@H]2C(=O)O [methicillin]

row,SMILES,MIC [µg/mL]
1,CC(=O)OCC1=C(C(=O)O)N2C(=O)[C@@H](NC(=O)CSc3ccncc3)[C@H]2SC1 [cefapirin],128

# Same assay, conditions: addition of 50 μg/mL of flavone
row,MIC +flavone [µg/mL],SMILES
1,32,CC1(C)S[C@@H]2[C@H](NC(=O)Cc3ccccc3)C(=O)N2[C@H]1C(=O)O [benzylpenicillin]
2,4,CC1(C)S[C@@H]2[C@H](NC(=O)C(C(=O)O)c3ccccc3)C(=O)N2[C@H]1C(=O)O (stereo partly shown) [carbenicillin]
3,4,COc1cccc(OC)c1C(=O)N[C@@H]1C(=O)N2[C@@H]1SC(C)(C)[C@@H]2C(=O)O [methicillin]

row,SMILES,MIC +flavone [µg/mL]
1,CC(=O)OCC1=C(C(=O)O)N2C(=O)[C@@H](NC(=O)CSc3ccncc3)[C@H]2SC1 [cefapirin],<0.016

# System: penicillinase producing Staphylococcus aureus
# Assay: Effects of flavone in combination with benzylpenicillin or methicillin on penicillinase producing Staphylococcus aureus
# Type: cell-based
# Conditions: + flavone 50 μg/mL
# Experimental: as §1
# The effects of flavone in combination with benzylpenicillin or methicillin on penicillinase producing Staphylococcus aureus are shown in Table 4.
# Effects of Flavone in Combination with Benzylpenicillin or Methicillin on Penicillinase Producing Staphylococcus aureus.
row,MIC [µg/mL],SMILES
1,0.39,CC1(C)S[C@@H]2[C@H](NC(=O)Cc3ccccc3)C(=O)N2[C@H]1C(=O)O [benzylpenicillin]

# Same assay, conditions: antibiotic alone
row,MIC [µg/mL],SMILES
1,1.56,CC1(C)S[C@@H]2[C@H](NC(=O)Cc3ccccc3)C(=O)N2[C@H]1C(=O)O [benzylpenicillin]
2,0.98,COc1cccc(OC)c1C(=O)N[C@@H]1C(=O)N2[C@@H]1SC(C)(C)[C@@H]2C(=O)O [methicillin]

# System: MRSA infected mouse
# Assay: Antibacterial activity on MRSA infected mouse (survival rate after 5 days)
# Type: in vivo
# Conditions: antibiotic alone, 0.5 mg/mouse, after 5 days
# Experimental: MRSA was incubated with Brain-Heart Infusion medium at 37° C. for 18 hours, and then the bacteria were collected and washed, followed by resuspension in saline. The suspension was admixed in an aqueous 5% gastric mucin solution and the concentration was adjusted to a predetermined value. Then, 0.2 mL of the mixture was intraperitoneally administered to an ICR strain SPF mouse. At one hour after the infection, various concentrations of β-lactam agents and rutin (0.2 mL) was subcutaneously administered, and survival rate was analyzed after 5 days and thus the effectiveness was evaluated. In addition, the effectiveness by oral administration (0.2 mL) was evaluated and various concentrations of β-lactam agents and rutin (0.2 mL) were administered using a gastric probe 1 hour or 5 hours prior to the infection.
row,SMILES,survival rate [%]
1,CC(=O)OCC1=C(C(=O)O)N2C(=O)[C@@H](NC(=O)CSc3ccncc3)[C@H]2SC1 [cefapirin],20

# Same assay, conditions: antibiotic alone, 1 mg/mouse, after 5 days
row,SMILES,survival rate [%]
1,CC(=O)OCC1=C(C(=O)O)N2C(=O)[C@@H](NC(=O)CSc3ccncc3)[C@H]2SC1 [cefapirin],20

# Same assay, conditions: antibiotic alone, 5 mg/mouse, after 5 days
row,SMILES,survival rate [%]
1,CC(=O)OCC1=C(C(=O)O)N2C(=O)[C@@H](NC(=O)CSc3ccncc3)[C@H]2SC1 [cefapirin],20

# Same assay, conditions: antibiotic alone, 10 mg/mouse, after 5 days
row,SMILES,survival rate [%]
1,CC(=O)OCC1=C(C(=O)O)N2C(=O)[C@@H](NC(=O)CSc3ccncc3)[C@H]2SC1 [cefapirin],20

# Same assay, conditions: antibiotic alone, 15 mg/mouse, after 5 days
row,SMILES,survival rate [%]
1,CC(=O)OCC1=C(C(=O)O)N2C(=O)[C@@H](NC(=O)CSc3ccncc3)[C@H]2SC1 [cefapirin],40

# Same assay, conditions: oral, antibiotic 10 mg/mouse with rutin 5 mg/mouse
row,SMILES,survival rate [%]
1,CC(=O)OCC1=C(C(=O)O)N2C(=O)[C@@H](NC(=O)CSc3ccncc3)[C@H]2SC1 [cefapirin],40

# Same assay, conditions: oral, antibiotic 10 mg/mouse with rutin 10 mg/mouse
row,SMILES,survival rate [%]
1,CC(=O)OCC1=C(C(=O)O)N2C(=O)[C@@H](NC(=O)CSc3ccncc3)[C@H]2SC1 [cefapirin],60

# Same assay, conditions: oral, antibiotic 15 mg/mouse with rutin 5 mg/mouse
row,SMILES,survival rate [%]
1,CC(=O)OCC1=C(C(=O)O)N2C(=O)[C@@H](NC(=O)CSc3ccncc3)[C@H]2SC1 [cefapirin],60

# Same assay, conditions: oral, antibiotic 15 mg/mouse with rutin 10 mg/mouse
row,SMILES,survival rate [%]
1,CC(=O)OCC1=C(C(=O)O)N2C(=O)[C@@H](NC(=O)CSc3ccncc3)[C@H]2SC1 [cefapirin],80

# Same assay, conditions: subcutaneous, antibiotic 10 mg/mouse with rutin 5 mg/mouse
row,SMILES,survival rate [%]
1,CC(=O)OCC1=C(C(=O)O)N2C(=O)[C@@H](NC(=O)CSc3ccncc3)[C@H]2SC1 [cefapirin],0

# Same assay, conditions: subcutaneous, antibiotic 10 mg/mouse with rutin 10 mg/mouse
row,SMILES,survival rate [%]
1,CC(=O)OCC1=C(C(=O)O)N2C(=O)[C@@H](NC(=O)CSc3ccncc3)[C@H]2SC1 [cefapirin],20

# Same assay, conditions: subcutaneous, antibiotic 15 mg/mouse with rutin 5 mg/mouse
row,SMILES,survival rate [%]
1,CC(=O)OCC1=C(C(=O)O)N2C(=O)[C@@H](NC(=O)CSc3ccncc3)[C@H]2SC1 [cefapirin],80

# Same assay, conditions: subcutaneous, antibiotic 15 mg/mouse with rutin 10 mg/mouse
row,SMILES,survival rate [%]
1,CC(=O)OCC1=C(C(=O)O)N2C(=O)[C@@H](NC(=O)CSc3ccncc3)[C@H]2SC1 [cefapirin],100

# From US20040229825A1, “Pharmaceutical composition for treatment of infection with drug resistant bacterium and disinfectant” (priority 2003, published 2004)
